Laboratory results reported in patent publication US9119396B2, “Method for promoting plant growth” (SUMITOMO CHEMICAL COMPANY, LIMITED, priority 2011, dated 2015).

Assays:
Assay type in all cases: in vivo
[1] = tested on: Rice (cultivar: Nipponbare); experiment: Test Example 5: reduction of low-temperature stress by treatment of rice seeds; settings: rice seed treatment, low-temperature stress 4° C. 5 days, then 12 days at 25° C.
Description: Evaluation Test for Reduction of Low-Temperature Stress by Treatment of Rice Seeds Rice (cultivar: Nipponbare) A blank slurry solution containing 5% (V/V) color coat red (Becker Underwood, Inc.), 5% (V/V) CF-Clear (Becker Underwood, Inc.) and 1% Maxim XL (Syngenta) was prepared. A slurry solution was prepared by dissolving the present compound 1 in the blank slurry solution such that 5 g or 50 g of the compound is applied to each 100 kg of rice seeds. In a 15-ml centrifuge tube (manufactured by AGC TECHNO GLASS CO., LTD.), 0.1 ml of the slurry solution was placed for each 3 g of rice seeds and stirred until the solution was dried, thereby coating the seeds. In addition, seeds were coated with the blank slurry solution and used as seeds for a non-treated group. A filter paper was placed on the bottoms of the holes of a plug tray having 406 holes, and the rice seeds treated above were sown on the filter paper. […] Twelve (12) days after the treatment, the fresh weight of the overground part of each plant was measured. The experiment was performed in four replications in each treated group and the average value was calculated. […]

[2] = tested on: Rice (cultivar: Nipponbare); experiment: Test Example 6: reduction of drought stress by immersion treatment of rice; settings: hydroponic solution 10 ppm for 14 days, drought stress 2 days, then 14 days cultivation
Description: Evaluation Test for Reduction of Drought Stress by Immersion Treatment of Rice Rice (cultivar: Nipponbare) A necessary amount of rice seeds was immersed in an aqueous solution of 1,000 ppm of Benlate, and incubated at 30° C. overnight under dark conditions. The aqueous solution of Benlate was replaced with distilled water, and the seeds were further incubated at 30° C. overnight under dark conditions. A filter paper was placed on the holes of a plug tray having 406 holes, and the rice seeds treated as above were sown on the filter paper. To the rice seeds were added a kimura B solution for hydroponics (see Plant Science 119: 39-47 (1996)) at ½ concentration and a 1/10,000 volume of a DMSO solution containing the present compound 1 at 100,000 ppm, and cultivated for 14 days under the conditions of a temperature of 28° C. in daytime/23° C. in night, a humidity of 60%, an illuminance of 8500 lux, and a day length of 12 hours. […] Fourteen (14) days after the treatment, the fresh weight of the overground parts of five test plants in each treated group was measured. The experiment was performed in three replications in each treated group and the average value was calculated. […]

Wheat (cultivar: Apogee) = experiment: Test Example 7: reduction of high-temperature stress by spraying treatment of wheat; settings: spray solution 100 ppm, high-temperature stress 36° C./32° C. 7 days, 60 days after sowing
Description: Evaluation Test for Reduction of High-Temperature Stress by Spraying Treatment of Wheat
Five wheat seeds were sown in the culture soil (AISAI) in each plastic pot and cultivated for 28 days in an artificial weather control room under the conditions of a temperature of 18° C. in daytime/15° C. in night, and an illuminance of 7,000 lux. Before the stress test, 3 individuals per pot were removed.
To 0.5 mg of the present compound 1 were added 120 mg of a mixture (weight ratio 1:1) of white carbon and ammonium polyoxyethylene alkyl ether sulfate and 300 μl of water. The mixture was finely ground by a wet grinding method to obtain a flowable formulation of the present compound 1. This flowable formulation was diluted with […] of water. The mixture was diluted with RINO (manufactured by NIHON NOHYAKU CO., LTD) as a spreading agent to 5,000-fold dilution to obtain a spray solution containing 100 ppm of the present compound 1. […]
After the high-temperature stress treatment, the plants were cultivated in an artificial weather control room under the conditions of a temperature of 18° C. in daytime/15° C. in night, and a illuminance of 7,000 lux. Then, 60 days after the sowing, the fresh weight of seeds in ears of the tested plants in 7 or 8 pots were measured, and the average values of the weight of seeds of ears per one pot (3 individuals) were calculated. […]

SMILES: COC(=O)c1cc2cc(C(F)(F)F)ccc2s1 [compound 1]
- fresh weight of the overground part of plants vs non-treated group ([1]; 5 g per 100 kg of seeds): much heavier
- fresh weight of the overground part of plants vs non-treated group ([1]; 50 g per 100 kg of seeds): much heavier
- fresh weight of the overground part of plants vs non-treated group [2]: much heavier
- fresh weight of seeds of ears vs non-treated group (Wheat (cultivar: Apogee)): much larger
